Among the data in ChEMBL document CHEMBL1158366, “Gallium(III) complexes of 2-pyridineformamide thiosemicarbazones: cytotoxic activity against malignant glioblastoma” (Eur J Med Chem, 2009) are Activity and IC50 values, retold here.

SMILES strings stand for the structures. Calls of active or inactive are those of the source. The rule behind the calls is not given here. Bounds are passed on as bounds.

For series [1], the system named is RT2. Briefly: Induction of apoptosis in rat RT2 cells expressing wild type p53 protein assessed as cell membrane morphological changes at 100 uM after 48 hrs by phase contrast microscopy. In kind it is functional, cell-based.
The subject of series [2] is T98. Briefly: Induction of apoptosis in human T98 cells expressing mutant p53 protein assessed as cell membrane morphological changes at 100 uM after 48 hrs by phase contrast microscopy. In kind it is functional, cell-based.
The subject of series [3] is RT2. Briefly: Induction of apoptosis in rat RT2 cells expressing wild type p53 protein assessed as DNA fragmentation at 100 uM after 48 hrs using DAPI staining by UV/fluorescence microscopy. In kind it is functional, cell-based.
For series [4], the system named is T98. Briefly: Induction of apoptosis in human T98 cells expressing mutant p53 protein assessed as DNA fragmentation at 100 uM after 48 hrs using DAPI staining by UV/fluorescence microscopy. It is filed as functional, cell-based.
Series [5] is described as follows: Cytotoxicity against rat RT2 cells expressing wild type p53 protein after 48 hrs by MTT assay. It is filed as functional, cell-based. The conditions noted are these: RT2, 48 h. (Tetrazolium dyes change colour on reduction, which living cells bring about.)
Series [6] in a line: Cytotoxicity against human T98 cells expressing mutant p53 protein after 48 hrs by MTT assay. In kind it is functional, cell-based. The conditions noted are these: T98, 48 h.
The nature of series [7]: Toxicity in human RBC membrane assessed as hemolysis after 1 hr by spectrophotometry. It is filed as cell-based, Erythrocyte. Conditions: red blood cells (RBC membrane).

With `CNC(=S)N/N=C(\N)c1ccccn1`, the result in the series with RT2 [1], with T98 [2], in the series on RT2 [3] and with T98 [4] was Active. In addition, the half-inhibitory concentration (IC50) in series [5] stood at 12.2 µM; in series [6], 32 µM. The IC50 at 1 hr in series [7] is > 1000 µM.
Take `CCNC(=S)N/N=C(\N)c1ccccn1`: the IC50 in series [5] stood at 359 µM; in series [6], 143 µM. For the same compound, the IC50 at 1 hr in series [7] was > 1000 µM.
With `NC(=S)N/N=C(\N)c1ccccn1`, the IC50 was determined as 7.28 µM in series [5] and 3.6 µM in series [6]. The concentration for half-maximal inhibition (IC50) at 1 hr in series [7] is > 1000 µM.

For orientation: IC50 means the concentration at which inhibition is half-maximal.
